In patent US8518945B2, “Pyrrolopyrazine kinase inhibitors” (Hoffmann-La Roche Inc., priority 2010, dated 2013):

Biological target: T1, h-jak3(810-1124) (JAK3: Recombinant human kinase domain) (Homo sapiens, UniProt P52333)
T1 construct: jak3(810- 1124)-sf9-c; made in house; host or cells: Sf9
Assay: Determination of IC50 of Janus Kinase (JAK) inhibition: JAK3 radioactive end-point 33P-ATP kinase assay
Type: biochemical
Settings: no additive; ATP 1.5 uM, peptide 50 uM, 20 minutes, room temperature; read-out: Ic50 h-jak3(810-1124)-sf9-c: no additive

T1 sequence (P52333 810-1124): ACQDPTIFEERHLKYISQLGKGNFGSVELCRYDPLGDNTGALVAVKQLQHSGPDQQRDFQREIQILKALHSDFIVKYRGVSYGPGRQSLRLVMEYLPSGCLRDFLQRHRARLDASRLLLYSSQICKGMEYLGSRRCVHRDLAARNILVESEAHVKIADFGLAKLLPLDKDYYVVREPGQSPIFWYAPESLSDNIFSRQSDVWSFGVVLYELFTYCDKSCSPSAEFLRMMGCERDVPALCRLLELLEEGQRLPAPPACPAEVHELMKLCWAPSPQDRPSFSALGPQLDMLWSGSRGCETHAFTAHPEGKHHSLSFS

SMILES	IC50
CC(C)NC(=O)c1cccc(-c2cnc3[nH]cc(C(=O)N[C@H](C)C(=O)N4CC(C#N)C4)c3n2)c1 [Example I-111, 2-(3-Isopropylcarbamoyl-phenyl)-5H-pyrrolo[2,3-b]pyrazine-7-carboxylic acid [(R)-2-(3-cyano-azetidin-1-yl)-1-methyl-2-oxo-ethyl]-amide]	5.71 nM
C[C@@H](NC(=O)c1c[nH]c2ncc(-c3cccc(C(=O)NCC4CC4)c3)nc12)C(=O)N1CC(C#N)C1 [Example I-112, 2-[3-(Cyclopropylmethyl-carbamoyl)-phenyl]-5H-pyrrolo[2,3-b]pyrazine-7-carboxylic acid [(R)-2-(3-cyano-azetidin-1-yl)-1-methyl-2-oxo-ethyl]-amide]	0.97 nM
C[C@@H](NC(=O)c1c[nH]c2ncc(-c3cc(C4=CCCC4)ccn3)nc12)C(=O)N1CC(C#N)C1 [Example I-113, 2-(4-Cyclopent-1-enyl-pyridin-2-yl)-5H-pyrrolo[2,3-b]pyrazine-7-carboxylic acid [(R)-2-(3-cyano-azetidin-1-yl)-1-methyl-2-oxo-ethyl]-amide]	3.71 nM
N#CC1CCN(C(=O)[C@H](NC(=O)c2c[nH]c3ncc(C4CC4)nc23)c2ccccc2)CC1 [Example I-114, 2-Cyclopropyl-5H-pyrrolo[2,3-b]pyrazine-7-carboxylic acid [(R)-2-(4-cyano-piperidin-1-yl)-2-oxo-1-phenyl-ethyl]-amide]	16.3 nM
CC(C)(C)[C@@H](NC(=O)c1c[nH]c2ncc(-c3ccccn3)nc12)C(=O)N1CCC(C#N)CC1 [Example I-115, 2-Pyridin-2-yl-5H-pyrrolo[2,3-b]pyrazine-7-carboxylic acid [(R)-1-(4-cyano-piperidine-1-carbonyl)-2,2-dimethyl-propyl]-amide]	2.92 nM
N#CC1CCN(C(=O)[C@@H](CC2CC2)NC(=O)c2c[nH]c3ncc(C4CC4)nc23)CC1 [Example I-116, 2-Cyclopropyl-5H-pyrrolo[2,3-b]pyrazine-7-carboxylic acid [(R)-2-(4-cyano-piperidin-1-yl)-1-cyclopropylmethyl-2-oxo-ethyl]-amide]	2.73 nM
CC(C)(C)[C@@H](NC(=O)c1c[nH]c2ncc(-c3cnn(-c4ccc(F)cc4)c3)nc12)C(=O)N1CCC(C#N)CC1 [Example I-117, 2-[1-(4-Fluoro-phenyl)-1H-pyrazol-4-yl]-5H-pyrrolo[2,3-b]pyrazine-7-carboxylic acid [(R)-1-(4-cyano-piperidine-1-carbonyl)-2,2-dimethyl-propyl]-amide]	1.01 nM
CC(C)(C)[C@@H](NC(=O)c1c[nH]c2ncc(-c3cc(C(F)(F)F)ccn3)nc12)C(=O)N1CCC(C#N)CC1 [Example I-118, 2-(4-Trifluoromethyl-pyridin-2-yl)-5H-pyrrolo[2,3-b]pyrazine-7-carboxylic acid [(R)-1-(4-cyano-piperidine-1-carbonyl)-2,2-dimethyl-propyl]-amide]	6.05 nM
CC(C)(C)[C@@H](NC(=O)c1c[nH]c2ncc(-c3cn(CC4CC4)cn3)nc12)C(=O)N1CCC(C#N)CC1 [Example I-119, 2-(1-Cyclopropylmethyl-1H-imidazol-4-yl)-5H-pyrrolo[2,3-b]pyrazine-7-carboxylic acid [(R)-1-(4-cyano-piperidine-1-carbonyl)-2,2-dimethyl-propyl]-amide]	2.74 nM
CC(C)(C)[C@@H](NC(=O)c1c[nH]c2ncc(-c3cn(C4CCCC4)cn3)nc12)C(=O)N1CCC(C#N)CC1 [Example I-120, 2-(1-Cyclopentyl-1H-imidazol-4-yl)-5H-pyrrolo[2,3-b]pyrazine-7-carboxylic acid [(R)-1-(4-cyano-piperidine-1-carbonyl)-2,2-dimethyl-propyl]-amide]	3.7 nM
N#CC1CCN(C(=O)[C@H](NC(=O)c2c[nH]c3ncc(-c4cn(C5CCCC5)cn4)nc23)C2CC2)CC1 [Example I-121, 2-(1-Cyclopentyl-1H-imidazol-4-yl)-5H-pyrrolo[2,3-b]pyrazine-7-carboxylic acid [(R)-2-(4-cyano-piperidin-1-yl)-1-cyclopropyl-2-oxo-ethyl]-amide]	1.67 nM
CC(C)(C)[C@@H](NC(=O)c1c[nH]c2ncc(-c3cn(CC(F)(F)F)cn3)nc12)C(=O)N1CCC(C#N)CC1 [Example I-122, 2-[1-(2,2,2-Trifluoro-ethyl)-1H-imidazol-4-yl]-5H-pyrrolo[2,3-b]pyrazine-7-carboxylic acid [(R)-1-(4-cyano-piperidine-1-carbonyl)-2,2-dimethyl-propyl]-amide]	4.05 nM
C[C@@H](NC(=O)c1c[nH]c2ncc(-c3cccc(N4CCC(C)(C)C4)c3)nc12)C(=O)N1CC(C#N)C1 [Example I-123, 2-[3-(3,3-Dimethyl-pyrrolidin-1-yl)-phenyl]-5H-pyrrolo[2,3-b]pyrazine-7-carboxylic acid [(R)-2-(3-cyano-azetidin-1-yl)-1-methyl-2-oxo-ethyl]-amide]	0.62 nM
CC[C@H](C)[C@@H](NC(=O)c1c[nH]c2ncc(C3CC3)nc12)C(=O)N1CCC(C#N)CC1 [Example I-124, 2-Cyclopropyl-5H-pyrrolo[2,3-b]pyrazine-7-carboxylic acid [(1R,2S)-1-(4-cyano-piperidine-1-carbonyl)-2-methyl-butyl]-amide]	1.37 nM
C[C@@H](NC(=O)c1c[nH]c2ncc(-c3cccc(N4C[C@H]5C[C@H]5C4)c3)nc12)C(=O)N1CC(C#N)C1 [Example I-126, 2-[(1S,5R)-3-(3-Aza-bicyclo[3.1.0]hex-3-yl)-phenyl]-5H-pyrrolo[2,3-b]pyrazine-7-carboxylic acid [(R)-2-(3-cyano-azetidin-1-yl)-1-methyl-2-oxo-ethyl]-amide]	0.57 nM
COc1ccnc(-c2cnc3[nH]cc(C(=O)N[C@@H](C(=O)N4CCC(C#N)CC4)C(C)(C)C)c3n2)c1 [Example I-127, 2-(4-Methoxy-pyridin-2-yl)-5H-pyrrolo[2,3-b]pyrazine-7-carboxylic acid [(R)-1-(4-cyano-piperidine-1-carbonyl)-2,2-dimethyl-propyl]-amide]	3.56 nM
CC(C)(C)[C@@H](NC(=O)c1c[nH]c2ncc(-c3ccc(C(F)(F)F)cc3)nc12)C(=O)N1CCC(C#N)CC1 [Example I-128, 2-(4-Trifluoromethyl-phenyl)-5H-pyrrolo[2,3-b]pyrazine-7-carboxylic acid [(R)-1-(4-cyano-piperidine-1-carbonyl)-2,2-dimethyl-propyl]-amide]	2.81 nM
N#CC1CCN(C(=O)[C@H](NC(=O)c2c[nH]c3ncc(-c4cc(OCC5CC5)ccn4)nc23)C2CC2)CC1 [Example I-129, 2-(4-Cyclopropylmethoxy-pyridin-2-yl)-5H-pyrrolo[2,3-b]pyrazine-7-carboxylic acid [(R)-2-(4-cyano-piperidin-1-yl)-1-cyclopropyl-2-oxo-ethyl]-amide]	1.18 nM
CC(C)(C)[C@@H](NC(=O)c1c[nH]c2ncc(-c3cc(OC4CCCC4)ccn3)nc12)C(=O)N1CCC(C#N)CC1 [Example I-130, 2-(4-Cyclopentyloxy-pyridin-2-yl)-5H-pyrrolo[2,3-b]pyrazine-7-carboxylic acid [(R)-1-(4-cyano-piperidine-1-carbonyl)-2,2-dimethyl-propyl]-amide]	113 nM
C[C@@H](NC(=O)c1c[nH]c2ncc(-c3cc(OCC4CC4)ccn3)nc12)C(=O)N1CC(C#N)C1 [Example I-131, 2-(4-Cyclopropylmethoxy-pyridin-2-yl)-5H-pyrrolo[2,3-b]pyrazine-7-carboxylic acid [(R)-2-(3-cyano-azetidin-1-yl)-1-methyl-2-oxo-ethyl]-amide]	2.58 nM
N#CC1CN(C(=O)[C@H](NC(=O)c2c[nH]c3ncc(-c4cn(-c5cc(F)ccc5F)cn4)nc23)C2CC2)C1 [Example I-132, 2-[1-(2,5-Difluoro-phenyl)-1H-imidazol-4-yl]-5H-pyrrolo[2,3-b]pyrazine-7-carboxylic acid [(R)-2-(3-cyano-azetidin-1-yl)-1-cyclopropyl-2-oxo-ethyl]-amide]	0.49 nM
N#CC1CN(C(=O)[C@H](NC(=O)c2c[nH]c3ncc(-c4cn(-c5cc(F)cc(F)c5F)cn4)nc23)C2CC2)C1 [Example I-133, 2-[1-(2,3,5-Trifluoro-phenyl)-1H-imidazol-4-yl]-5H-pyrrolo[2,3-b]pyrazine-7-carboxylic acid [(R)-2-(3-cyano-azetidin-1-yl)-1-cyclopropyl-2-oxo-ethyl]-amide]	1.67 nM
CC(C)(C)[C@@H](NC(=O)c1c[nH]c2ncc(C3CC3)nc12)C(=O)N1CCc2ncccc2C1 [Example I-135, 2-Cyclopropyl-5H-pyrrolo[2,3-b]pyrazine-7-carboxylic acid [(R)-1-(7,8-dihydro-5H-[1,6]naphthyridine-6-carbonyl)-2,2-dimethyl-propyl]-amide]	6.11 nM
N#CC1CN(C(=O)[C@H](NC(=O)c2c[nH]c3ncc(C4CC4)nc23)C2CCOCC2)C1 [Example I-136, 2-Cyclopropyl-5H-pyrrolo[2,3-b]pyrazine-7-carboxylic acid [(R)-2-(3-cyano-azetidin-1-yl)-2-oxo-1-(tetrahydro-pyran-4-yl)-ethyl]-amide]	7.11 nM
N#CC1CN(C(=O)[C@@H](NC(=O)c2c[nH]c3ncc(C4CC4)nc23)C2CCOCC2)C1 [Example I-137, 2-Cyclopropyl-5H-pyrrolo[2,3-b]pyrazine-7-carboxylic acid [(S)-2-(3-cyano-azetidin-1-yl)-2-oxo-1-(tetrahydro-pyran-4-yl)-ethyl]-amide]	539 nM
CC(C)(C)[C@@H](NC(=O)c1c[nH]c2ncc(C3CC3)nc12)C(=O)N1CCc2ccccc21 [Example I-138, 2-Cyclopropyl-5H-pyrrolo[2,3-b]pyrazine-7-carboxylic acid [(R)-1-(2,3-dihydro-indole-1-carbonyl)-2,2-dimethyl-propyl]-amide]	19.1 nM
CCn1cc(-c2cnc3[nH]cc(C(=O)N[C@@H](C(=O)N4CCC(F)(F)C4)C4CC4)c3n2)cn1 [Example I-139, 2-(1-Ethyl-1H-pyrazol-4-yl)-5H-pyrrolo[2,3-b]pyrazine-7-carboxylic acid [(R)-1-cyclopropyl-2-(3,3-difluoro-pyrrolidin-1-yl)-2-oxo-ethyl]-amide]	≤ 0.32 nM
